# Where two headings read alike, the source gives them in different places.
# Legend:
# Kinetic solubility = assay type: physicochemical; conditions: for solubility at 2 h: PBS buffer, 25 °C, pH 7.4, aqueous buffer, kinetic from dmso stock
# [1] = tested on: PKB/Akt phosphorylation (Ser473) in SKOV3 cells; assay: pPKB/Akt in-cell western; assay type: cell-based; conditions: read-out: pPKB/Akt IC50, 1 h of compound exposure
# [2] = tested on: PKB/Akt phosphorylation (Ser473) in T47D cells; assay: pPKB/Akt in-cell western; assay type: cell-based; conditions: 1 h; for prevention of PKB phosphorylation: 3 μM to 0.8 nM
# [3] = tested on: PKB/Akt phosphorylation (Ser473) in MCF7 cells; assay: pPKB/Akt in-cell western; assay type: cell-based; conditions: MCF7, 1 h; for prevention of PKB phosphorylation: 3 μM to 0.8 nM
# Nanoluc-p110α fusion = Nanoluc-p110α fusion (Homo sapiens, UniProt P42336); assay: NanoBRET tracer displacement / diffusion assay in HEK293 cells; assay type: cell-based; conditions: for increase in cellular permeability versus BYL719: diffusion coefficients
# [4] = tested on: PKB phosphorylation (Ser473) in MDA-MB-453, T47D and MCF7 cells; assay: Washout, pPKB in-cell western; assay type: cell-based; conditions: 1 μM for 2 h then washout
# PI3Kα mutant cell lines = assay: Growth rate on intermittent exposure; assay type: cell-based; conditions: 1 μM for 4 h daily over 4 days
# PI3Kα-mutant cell lines = assay: Growth rate inhibition, panel comparison; assay type: cell-based; conditions: 72 h incubation, GR50
# p110α = p110α protein levels by western blot; assay type: cell-based; conditions: 1 μM for 48 h
# [5] = tested on: PI3K signaling (pPKB Ser473) in serum-starved MCF7 cells; assay: Receptor ligand stimulated pPKB after washout, western blot; assay type: cell-based; conditions: for inhibition at 1 µM: Homo sapiens, MCF7, 2 h
# [6] = Intrinsic warhead reactivity; assay type: physicochemical; conditions: 1 mM compound, 600 mM βME, 37 °C
# [7] = tested on: FOXO1 KTR translocation in A2058 cells; assay: FOXO1 KTR translocation; assay type: cell-based
# [8] = tested on: FOXO1 KTR translocation in T47D cells; assay: FOXO1 KTR translocation; assay type: cell-based; conditions: for time to import of FOXO1-KTR into the nucleus: 3 μM, live cell imaging
# [9] = tested on: PKB phosphorylation (Ser473) in T47D, MCF7, PC3 and A2058 cells; assay: Washout, pPKB in-cell western; assay type: cell-based
# Nanoluc-p110α fusion, sequence (P42336 whole entry, the tested form may be a part): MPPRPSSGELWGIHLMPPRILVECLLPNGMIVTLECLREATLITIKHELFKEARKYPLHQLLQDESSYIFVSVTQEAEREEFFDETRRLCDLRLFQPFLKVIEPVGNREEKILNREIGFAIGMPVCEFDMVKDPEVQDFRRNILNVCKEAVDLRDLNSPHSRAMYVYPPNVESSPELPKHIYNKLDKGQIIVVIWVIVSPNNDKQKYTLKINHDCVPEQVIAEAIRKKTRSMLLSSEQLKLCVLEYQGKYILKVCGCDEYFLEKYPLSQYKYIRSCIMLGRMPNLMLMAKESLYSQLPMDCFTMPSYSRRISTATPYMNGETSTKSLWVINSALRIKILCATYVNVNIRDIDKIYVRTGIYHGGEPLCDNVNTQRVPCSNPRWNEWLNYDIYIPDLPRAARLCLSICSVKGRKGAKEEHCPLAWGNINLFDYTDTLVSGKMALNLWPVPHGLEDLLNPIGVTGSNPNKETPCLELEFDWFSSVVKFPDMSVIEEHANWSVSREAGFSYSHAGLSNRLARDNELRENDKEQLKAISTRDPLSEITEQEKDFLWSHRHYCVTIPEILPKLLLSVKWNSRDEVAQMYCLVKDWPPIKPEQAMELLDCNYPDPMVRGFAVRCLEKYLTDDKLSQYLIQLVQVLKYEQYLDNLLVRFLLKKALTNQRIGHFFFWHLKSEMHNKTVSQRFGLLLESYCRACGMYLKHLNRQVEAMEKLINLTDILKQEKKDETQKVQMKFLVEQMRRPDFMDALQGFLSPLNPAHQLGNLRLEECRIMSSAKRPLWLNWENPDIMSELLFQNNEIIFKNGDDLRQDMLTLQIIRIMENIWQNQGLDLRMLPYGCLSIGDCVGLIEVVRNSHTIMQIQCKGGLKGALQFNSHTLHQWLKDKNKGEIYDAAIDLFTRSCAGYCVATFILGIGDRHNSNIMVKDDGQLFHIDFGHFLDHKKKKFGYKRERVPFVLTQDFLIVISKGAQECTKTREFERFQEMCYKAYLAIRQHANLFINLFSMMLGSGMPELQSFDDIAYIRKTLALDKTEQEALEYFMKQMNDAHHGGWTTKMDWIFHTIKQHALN
# Nanoluc-p110α fusion, sequence (P27986 whole entry partner, the tested form may be a part): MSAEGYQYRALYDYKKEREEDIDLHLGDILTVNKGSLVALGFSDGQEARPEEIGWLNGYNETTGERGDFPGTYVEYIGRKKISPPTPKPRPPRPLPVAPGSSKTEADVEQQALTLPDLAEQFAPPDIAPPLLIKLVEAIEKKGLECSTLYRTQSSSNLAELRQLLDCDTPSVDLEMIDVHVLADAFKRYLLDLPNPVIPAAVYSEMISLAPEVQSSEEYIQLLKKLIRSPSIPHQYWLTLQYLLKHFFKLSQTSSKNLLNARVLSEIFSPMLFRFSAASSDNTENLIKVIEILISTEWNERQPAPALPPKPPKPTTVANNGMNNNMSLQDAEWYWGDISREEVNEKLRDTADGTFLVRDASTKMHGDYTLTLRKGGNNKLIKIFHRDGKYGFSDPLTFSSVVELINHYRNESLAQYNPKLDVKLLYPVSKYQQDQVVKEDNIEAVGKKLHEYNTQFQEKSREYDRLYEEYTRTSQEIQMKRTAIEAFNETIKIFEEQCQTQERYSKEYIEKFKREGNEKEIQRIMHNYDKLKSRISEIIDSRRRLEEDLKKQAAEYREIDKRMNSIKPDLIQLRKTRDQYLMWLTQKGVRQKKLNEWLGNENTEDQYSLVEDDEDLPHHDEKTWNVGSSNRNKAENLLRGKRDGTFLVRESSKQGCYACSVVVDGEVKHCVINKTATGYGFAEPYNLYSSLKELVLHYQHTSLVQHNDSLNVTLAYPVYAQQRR
smiles,measurement,setting,value
C=CC(=O)N1CCC(CN(C)CC(=O)N2CCN(c3nc(-c4cnc(N)nc4C(F)F)nc(N4CCOCC4)n3)CC2)CC1 [Compound 3],solubility at 2 h,Kinetic solubility,363 µM
same,IC50,[1],38 nM
CC[C@H](Nc1ncnc2[nH]cnc12)c1nc2cccc(F)c2c(=O)n1-c1ccccc1 [CAL101],prevention of PKB phosphorylation,[2],did not prevent PKB phosphorylation
same,prevention of PKB phosphorylation,[3],did not prevent PKB phosphorylation
C=CC(=O)N1CCC(COCC(=O)N2CCN(c3nc(-c4cnc(N)nc4C(F)F)nc(N4CCOCC4)n3)CC2)CC1 [Compound 8],IC50,[1],19 nM
same,increase in cellular permeability versus BYL719,Nanoluc-p110α fusion,2- to 3 fold
C=CC(=O)N1CCC(COCC(=O)N2CCN(c3nc(-c4cnc(N)nc4C(F)F)nc(N4CCOC[C@@H]4C)n3)CC2)CC1 [Compound 9],solubility at 2 h,Kinetic solubility,357 µM
same,duration of loss of detectable pPKB after washout,[4],up to 72 h
same,growth rate,PI3Kα mutant cell lines,≤ 0.5
same,more potent growth inhibition than reference compounds BYL719 and GDC-0077,PI3Kα-mutant cell lines,2- to 273 fold
same,more potent than the reversible analogue 9r,PI3Kα-mutant cell lines,6- to 70 fold
same,depletion of p110α,p110α; HCC1954 and MDA-MB-453 cells,"prominent, indistinguishable depletion of p110α"
same,depletion of p110α,p110α; MCF7 and T47D cells,insignificant
same,IC50,[1],19 nM
same,increase in cellular permeability versus BYL719,Nanoluc-p110α fusion,2- to 3 fold
same,faster permeation into cells as compared to 7,"Nanoluc-p110α fusion; human, 4 h",ca. 2.8 ×
same,inhibition at 1 µM,[5]; read-out: inhibition of PI3K signaling in response to CXCL12,91%
same,inhibition at 1 µM,[5]; read-out: inhibition of PI3K signaling in response to EGF,98%
CCC(=O)N1CCC(COCC(=O)N2CCN(c3nc(-c4cnc(N)nc4C(F)F)nc(N4CCOC[C@@H]4C)n3)CC2)CC1 [Compound 9r],time to equilibrium of BRET signal decay,"Nanoluc-p110α fusion; HEK293, 200 nM Tracer K-3",ca. 20 min
same,increase in cellular permeability versus BYL719,Nanoluc-p110α fusion,2- to 3 fold
C=CC(=O)N1CCC(C(=O)NCCN2CCN(c3nc(-c4cnc(N)nc4C(F)F)nc(N4CCOCC4)n3)CC2)CC1 [Compound 4],IC50,[1],69 nM
same,k chem × 10^4,[6],~5.2 ^e M^−1 s^−1
C=CC(=O)N1CCC(C(=O)N(C)CC(=O)N2CCN(c3nc(-c4cnc(N)nc4C(F)F)nc(N4CCOCC4)n3)CC2)CC1 [Compound 2],solubility at 2 h,Kinetic solubility,383 µM
same,IC50,[1],82 nM
C=CC(=O)N1CCC(CCCC(=O)N2CCN(c3nc(-c4cnc(N)nc4C(F)F)nc(N4CCOCC4)n3)CC2)CC1 [Compound 7],IC50,[1],22 nM
same,time to nuclear FOXO1 KTR localization,"[7]; A2058, 3 μM, live cell imaging",> 40 min
same,IC90,"[7]; Homo sapiens, A2058, 1 h, read-out: FOXO1-KTR nuclear translocation IC90",1660 nM
same,better cellular potency (lower pPKB IC50) as compared to BYL719,[2],5 fold
same,persistence of nuclear FOXO1-KTR localization after washout,[8]; 3 μM then washout,> 10 h
same,time to import of FOXO1-KTR into the nucleus,[8],< 20 min
same,IC90,"[8]; Homo sapiens, 1 h, read-out: FOXO1-KTR nuclear import IC90",50 nM
same,PI3K/PKB signaling after washout,[9]; PTEN-deficient cell lines,~50%
same,duration of pathway inhibition after washout,"[9]; T47D and MCF7 cells, 3 μM for 2 h then washout",> 18 h
same,better cellular potency (lower pPKB IC50) as compared to BYL719,[3],8 fold
"Cc1nc(NC(=O)N2CCC[C@H]2C(N)=O)sc1-c1ccnc(C(C)(C)C(F)(F)F)c1 [BYL719, reference compound]",solubility at 2 h,Kinetic solubility,49 µM
same,FOXO1-KTR nuclear translocation IC90,"[7]; A2058, 1 h incubation",completely ineffective
same,time to import of FOXO1-KTR into the nucleus,[8],< 20 min
same,FOXO1-KTR nuclear import IC90,[8]; 1 h incubation,not able to induce full nuclear translocation
same,reactivation of PI3K/PKB signaling after removal of inhibitor,"[9]; all cell lines, 2 h incubation then washout",reactivated PI3K/PBK signaling within the first hour
C=CC(=O)N1CCC(C(=O)NCC(=O)N2CCN(c3nc(-c4cnc(N)nc4C(F)F)nc(N4CCOCC4)n3)CC2)CC1 [Compound 1],solubility at 2 h,Kinetic solubility,333 µM
same,IC50,[1],86 nM
"C[C@H](Nc1ccc2c(c1)OCCn1cc(N3C(=O)OC[C@H]3C(F)F)nc1-2)C(N)=O [GDC-0077, reference compound]",solubility at 2 h,Kinetic solubility,357 µM
same,depletion of p110α,p110α; HCC1954 and MDA-MB-453 cells,"prominent, indistinguishable depletion of p110α"
same,depletion of p110α,p110α; MCF7 and T47D cells,insignificant
Cc1cc(C(C)Nc2ccccc2)c2nc(N3CCOCC3)cc(=O)n2c1 (centres unmarked) [TGX221],prevention of PKB phosphorylation,[2],did not prevent PKB phosphorylation
same,"suppression of the remaining PI3K signaling, CXCL12","[5]; MCF7, TGX221 1 μM after 9-wo",6%
same,"suppression of the remaining PI3K signaling, EGF","[5]; MCF7, TGX221 1 μM after 9-wo",2%
same,"suppression of the remaining PI3K signaling, insulin","[5]; MCF7, TGX221 1 μM after 9-wo",12%
same,prevention of PKB phosphorylation,[3],did not prevent PKB phosphorylation
"CC(C)=CC(=O)CCC(=O)N1CCN(Cc2cc3nc(-c4cccc5[nH]ncc45)nc(N4CCOCC4)c3s2)CC1 [CNX1351, reference compound]",Solubility,Kinetic solubility; kinetic solubility at pH 7.4 in PBS,10 µM
same,IC50,[1],172 nM
same,k chem × 10^4,[6],2.2 M^−1 s^−1
"C=CC(=O)N1CCC[C@@H](n2nc(-c3ccc(Oc4ccccc4)cc3)c3c(N)ncnc32)C1 [Ibrutinib, reference compound]",solubility at 2 h,Kinetic solubility,10 µM
